# Patent US8729034B2, “Pharmaceutical composition having virucidal and spermicidal activity” (priority 2007, dated 2014)
# Experiments:
# [1] = system: Salmonella typhimurium TA100; assay: Bacterial reverse mutation assay (MUTA-CHROMOPLATE kit); conditions: Background = 20, Blank = 0
# Excerpt: Ac-B was examined for its ability to produce mutations/revert mutations in a bacterial reverse mutation assay using amino acid-requiring strain of Salmonella typhimurium (S. typhimurium) TA100 and the result was compared with a known mutagen (Na-azide). A commercial kit (The MUTA-CHROMOPLATE) from M/s Environmental Biodetection Products Inc. Ontario, Canada, was used. Suspensions of bacterial cells were exposed to the test substance in the presence and in the absence of an exogenous metabolic activation system. After 5 days of incubation, revertant colonies were detected by the change of colour from blue to yellow on solvent control plates. All yellow, partially yellow or turbid wells were scored as positive, while all purple wells were scored as negative. Number of positive wells for each plate was recorded, their number was counted and compared to that of spontaneous revertant colonies. The “Background” (i.e. no test material added) plate was used as reference for the level of spontaneous or background mutation of the assay organism. The statistical difference was determined using a table provided with the kit.
# Score of mutagenicity as per the set criteria of Muta-Chromoplate test kit.
# human spermatozoa [2] = assay: Sander & Cramer spermicidal assay (in vitro); type: cell-based; conditions: Human spermatozoa (N = 5); weakest concentration immobilizing all spermatozoa within 20 seconds
# Description: (§1) The exudates/liquefied human semen samples were suspended in BWW medium (pre equilibrated at 37 degree C.). The spermatozoa with forward motility were separated from immotile or sluggishly motile cells by the swim-up technique and were allowed to disperse evenly within a CO2 incubator at 37 degree C. At least five aliquots from each sample was used to prepare the working spermatozoa suspension. The swim up procedure was as follows:
# (§2) Pre equilibrated BWW medium (1.25 ml) was gently layered over cauda-exudates or liquefied human semen (1 ml) in a sterile 15 ml conical-based centrifuge tube. The tube was inclined at an angle of 45 degree and incubated for 1 hour at 37 degree C. in a CO2-incubator. It was then gently returned to the upright position and the uppermost 1 ml medium with a turbid appearance was removed. This aliquot of motile cells was pooled from each set, then diluted with same volumes of pre equilibrated BWW medium, centrifuged at 500 g for 5 minutes and finally resuspended in 1 ml pre equilibrated BWW medium to obtain a working suspension. The sperm cells were counted in a Makler chamber (Zygotec Systems, Springfield, M A, USA) and finally a working spermatozoa suspension having concentration of 25 to 30×10^6 cells/ml was prepared.
# (§3) For in vitro assay of spermicidal effect, sperms collected from proven male rats and mice, and motile spermatozoa from liquefied human semen were used.
# (§4) The assay was done following the Sander & Cramer assay method. Two hundred micro liter (200 microliters) of working spermatozoa suspension was added to 1 ml solution of test material in BWW medium and mixed on a light vortex for 10 seconds. A wet mount was immediately prepared on a clean microscopy glass slide and examined (at ×100) under a phase contrast microscope (Leitz, Biomed). The weakest concentration that immobilized all spermatozoa within 20 seconds of mixing was recorded as MEC. At least five fields were examined for each wet mount preparation. The observation was repeated with five individual spermatozoa suspension for each concentration of test compound solution. For negative control, saponin solutions were replaced by equal volume of BWW medium, while Nonoxynol 9 was used as positive control.
# human spermatozoa [3] = conditions: cited from earlier work
# mouse spermatozoa = assay: Sander & Cramer spermicidal assay (in vitro); type: cell-based; conditions: Mouse spermatozoa (N = 10); all immobilized within 20 seconds
# Description: (§5) Sexually mature male mice and rats were autopsied following euthanasia by an overdose of Ketamin (≧200 mg/kg body weight; injected i.p.) and their cauda epididymis were excised. Working suspension of animal spermatozoa was prepared with the exudates obtained after careful pricking of the cauda epididymis with an injection needle (18 G) and the exudates were collected in a conical centrifuge tube.
# as §1, §2, §3, §4
# rat spermatozoa = assay: Sander & Cramer spermicidal assay (in vitro); type: cell-based; conditions: Rat spermatozoa (N = 10); all immobilized within 20 seconds
# Description: as §5, §1, §2, §3, §4
Compound,No. of '+' wells (Muta-Chromoplate score) [1],MEC as per Sander and Cramer Test (human spermatozoa [2]),MEC for N-9 (human spermatozoa [3]; closest prior arts),MEC of N-9 for spermicidal action (human spermatozoa [3]; comparison value in concluding remarks),MEC as per Sander and Cramer Test (mouse spermatozoa),MEC as per Sander and Cramer Test (rat spermatozoa)
"[N-]=[N+]=[N-].[Na+] [Na-azide, reference compound]",74,,,,,
"isononyl-phenyl-polyoxyethylene (9) ether [Nonoxynol 9, reference compound]",,>350 microgram per ml,200-500 microgram per ml,200-500 microgram,350 (±10) microgram per ml,350 (±10) microgram per ml
